Test results reported in patent publication US20210275657A1, “NEOANTIGENS AND USES THEREOF” (BioNTech US Inc., priority 2018, published 2021).
Where no end group is shown, it is not given here.

Legend:
[1] = molecular target: indicated HLA alleles; assay: Affinity of mutant BTK neopeptides for indicated HLA alleles; assay type: binding, human; settings: BTK_C481S
Description: (§1) Multiple peptides containing neoepitopes in the table below were either expressed or loaded onto antigen presenting cells. Mass spectrometry was then performed and the affinity of the neoepitopes for indicated HLA alleles were determined, and the stability of the neoepitopes with the HLA alleles were determined.

[2] = molecular target: indicated HLA alleles (Homo sapiens, UniProt P01889); assay: as above; assay type: binding
Description: as §1

[3] = tested on: indicated HLA alleles; assay: Stability of mutant BTK neopeptides with the HLA alleles; assay type: binding, human; settings: BTK_C481S
Description: as §1

[4] = molecular target: T1, HLA-A02:01 (Homo sapiens, UniProt P04439, D140Y/D185E/D98H/E176V/E277Q/G131W/G231S/I119V/I121R/I166T/I218V/L300P/L318F/N151K/N90K/P208A/P217A/Q86G/Q94H/R138H/R169H/T345S); assay: Stability measurements, pMHC-I dissociation with 125I light chain (Example 20); assay type: binding
Description: To measure the binding stability of peptides to Class I MHC, synthetic genes encoding biotinylated MHC-I heavy and light chains are expressed in E. coli and purified from inclusion bodies using standard methods. […] These reactions were carried out in streptavidin coated microplates to bind the biotinylated MHC-I heavy chains to the surface and allow measurement of radiolabeled light chain to monitor complex formation. Dissociation was initiated by addition of higher concentrations of unlabeled light-chain and incubation at 37° C. Stability was defined as the length of time in hours it takes for half of the complexes to dissociate, as measured by scintillation counts. Duplicate measurements were performed. The average of the two measurements was taken as the stability.

[5] = molecular target: indicated HLA alleles; assay: Affinity of GATA3 neoORF neoepitopes for the indicated HLA alleles (Example 9, Table 4); assay type: binding, human; settings: Allele A02.01; read-out: Observed MHC affinity
Description: (§2) Multiple peptides containing the neoepitopes in Table 4 below were expressed or loaded onto antigen presenting cells (APCs). Mass spectrometry was then performed and the affinity of the neoepitopes for the indicated HLA alleles and stability of the neoepitopes with the HLA alleles was determined.

[6] = tested on: indicated HLA alleles; assay: Stability of GATA3 neoORF neoepitopes with the HLA alleles (Example 9, Table 4); assay type: binding, human; settings: Allele A02.01
Description: as §2

[7] = molecular target: T1, HLA-A02:01; assay: Affinity measurements, competition with radiolabeled peptide (Example 20); assay type: binding

`CSCC[C@H](NC(=O)[C@H](CCC(=O)O)NC(=O)[C@H](CCCNC(=N)N)NC(=O)[C@H](CC(C)C)NC(=O)[C@H](Cc1ccc(O)cc1)NC(=O)[C@H](CC(N)=O)NC(=O)[C@H](CC(C)C)NC(=O)[C@H](CC(C)C)NC(=O)[C@@H](N)CO)C(=O)O` gave a Kd ([1]; HLA A02.01) of 67.7 nM, a Kd ([1]; HLA B08.01) of 960 nM and a Kd [2] of 866 nM. The “Stability (1/2 hr)” value ([3]; HLA A02.01) was 3.044 h, the “Stability (1/2 hr)” value ([3]; HLA B07.02) was 0 h and the “Stability (1/2 hr)” value ([3]; HLA B08.01) was 0 h.
In the case of TLQRSSLWCL, the “Experiment 1 half-life” value [4] is reported as 30 min, the “Experiment 2 half-life” value [4] is reported as 30 min and the Average half-life ([4]; average of experiments 1 and 2) is reported as 30 min. For the same compound, the Kd [5] was 118 nM, the “Observed MHC stability” value [6] was 0.5 h and the IC50 [7] was 281 nM.
